Results published in patent US9671412B2, “Beclin 1 phosphorylation” (Board of Regents, The University of Texas System, priority 2012, dated 2017).
“Also recorded” adds a separate entry of the source.

Columns and labels:
[1] = test system: myr-Akt1-expressing Rat2 cell tumors; assay: Tumors of myr-Akt1-expressing Rat2 cells in NOD SCID mice; assay type: in vivo; conditions: co-expressed with myr-Akt1 in Rat2 cells
From the text: To examine the role of Akt-mediated Beclin 1 phosphorylation in Akt-driven tumorigenesis, we transduced Rat2 fibroblasts with myr-Akt1 (which transforms rat fibroblasts (15)) and either wild-type Beclin 1 or Beclin 1 phosphorylation site mutants. Myr-Akt1 suppressed autophagy in Rat2 fibroblasts, reduced co-immunoprecipitation of Class III PI3K Vps34 with Beclin 1, and decreased Beclin 1-associated lipid kinase activity. […] Expression of myr-Akt1 had minimal effects on the interaction of Beclin 1 AA and Vps34 or on the amounts of Beclin 1 AA-associated Vps34 activity. Thus, myr-Akt1 suppresses Beclin 1-associated Vps34 activity and autophagy in a manner that is partially reversed by a Beclin 1 mutant resistant to Akt-mediated phosphorylation.
All myr-Akt1-expressing Rat2 cells formed tumors in immunodeficient NOD SCID® mice, but tumor growth rate and tumor mass upon necropsy were less for cells expressing Beclin 1 AA than for cells expressing wild-type Beclin 1 or myr-Akt1 alone. Tumors expressing myr-Akt1 alone had numerous cells displaying p62 immunoreactivity (indicating autophagy suppression) whereas very few p62 immunoreactive cells were detected in tumors from cells expressing both myr-Akt1 and Beclin 1 AA. […] Tumors expressing active Akt alone or with Beclin 1 had higher mean mitotic counts (n=8.39; n=8.37, respectively) than tumors expressing myr-Akt1 and Beclin 1 AA (n=3.67) (P<0.0001). They also had increased Ki-67 labeling, and decreased TUNEL staining. Thus, the expression of a mutant of Beclin 1 that cannot be phosphorylated by Akt increases tumor cell autophagy, decreases tumor growth rate and size, decreases tumor cellular proliferation, and increases tumor cell death.

[2] = test system: A549 cells (wild-type EGFR); assay: Autophagy in serum-starved A549 cells; assay type: cell-based, human; conditions: addition for 30 min
From the text: (§1) To evaluate whether EGFR activation inhibits autophagy, we used a human non-small cell lung carcinoma (NSCLC) cell line, A549, that express wild-type (WT) EGFR (VanMeter et al., 2008). We measured autophagy by examining the subcellular localization of a green fluorescent autophagy reporter protein, GFP-LC3, and by measuring levels of LC3-II, the autophagosome-associated lipidated form of LC3, and p62, an autophagic substrate (Mizushima et al., 2010).

[3] = test system: MCF7 human breast carcinoma cells; assay: Basal autophagy (GFP-LC3) in transfected MCF7 cells; assay type: cell-based; conditions: lesser extent with Beclin 1 AA than with wild-type Beclin 1
From the text: We transfected MCF7 human breast carcinoma cells [which express low amounts of endogenous Beclin 1 (14)] with GFP-LC3 and wild-type Beclin 1 or Beclin 1 S295A or AA mutants. […] Thus, Akt inhibits basal autophagy both through Beclin 1 phosphorylation-dependent and independent mechanisms.

GST-Akt1 = biological target: T1, GST-Akt1 (Homo sapiens, UniProt P31749); assay: In vitro phosphorylation of Beclin 1 S295 by GST-Akt1; assay type: biochemical; conditions: in vitro kinase reaction
T1 construct: GST
From the text: (§2) We examined whether autophagy execution proteins could be targets of Akt. We focused on Beclin 1 because of its role in autophagy and tumor suppression (4).

HCC827 xenografts = assay: HCC827 tumor xenografts under TKI therapy; assay type: in vivo; conditions: control mice without induction or with induced WT Beclin 1
From the text: (§3) We investigated whether this mechanism underlies EGFR regulation of autophagy in NSCLC cells with activating mutations in EGFR. We used two NSCLC lines: HCC827 cells have the Δ746-750 EGFR activating mutation and are TKI-sensitive, and H1975 cells have the L858R EGFR activating mutation and are TKI-resistant due to a T790M mutation.

[4] = test system: EGFR Δ746-750 (HCC827 cells)
From the text: as §3

[5] = test system: EGFR L858R/T790M (H1975 cells); assay: EGFR signalling, Beclin 1 interactome and Beclin 1 tyrosine phosphorylation in H1975 cells; assay type: cell-based, human
From the text: as §3

HCC827 cells = assay: Autophagy (GFP-LC3 puncta, LC3-II, p62) in HCC827 NSCLC cells; assay type: cell-based, human
From the text: as §3

H1975 cells = assay: Autophagy (GFP-LC3 puncta, LC3-II, p62) in H1975 NSCLC cells; assay type: cell-based, human
From the text: as §1
as §3, with “mutation. First, we evaluated if TKI treatment induces autophagy; […]. Thus, TKI therapy disrupts the EGFR/Beclin 1 complex and induces autophagy in TKI-sensitive but not TKI-resistant cells.” for “mutation.”

mTOR = assay: Phospho-4E-BP1 (mTOR phosphorylation target) in HeLa cells; assay type: cell-based; conditions: including those expressing myr-Akt1
From the text: We investigated whether Akt inhibits autophagy by directly regulating the core autophagy machinery independently of mTOR. Expression of constitutively active myristoylated (5) and tagged Akt1 (Flag-tagged myr-Akt) in HeLa cells inhibited autophagy during growth in normal medium, in response to serum and amino acid starvation (a physiological inducer of autophagy), in response to treatment with an ATP-competitive inhibitor of mTOR, Torin1 (6), and in response to both starvation and Torin1 treatment. In all conditions, cells expressing myr-Akt1 had decreased numbers of puncta upon transfection with a fusion protein of green fluorescent protein with LC3 (GFP-LC3), a fluorescent marker of autophagosomes; increased amounts of p62 (a substrate that is degraded by autophagy); and increased amounts of the cytosolic non-lipidated form of LC3, LC3-I, and of total LC3 (7). Amounts of phospho-4E-BP1, a phosphorylation target of mTOR, were decreased in Torin1-treated cells, including those expressing myr-Akt1.

[6] = test system: Beclin 1 S295 / S234 phosphorylation; assay: Phosphorylation of endogenous Beclin 1 S295 and S234 in HeLa cells expressing myr-Akt1; assay type: cell-based
From the text: as §2

HeLa cells = assay: Autophagy induction in HeLa cells transfected with empty vector or WT EGFR; assay type: cell-based
From the text: We investigated the effects of active EGFR mutants that constitutively bind Beclin 1 on autophagy. […] In cells transfected with the active EGFR mutants, L858R or 4746-750, starvation and Torin1 induced lower levels of autophagy. […] Thus, active EGFR mutants suppress autophagy in a manner that is partially independent of mTOR.

T1 sequence (P31749 whole entry): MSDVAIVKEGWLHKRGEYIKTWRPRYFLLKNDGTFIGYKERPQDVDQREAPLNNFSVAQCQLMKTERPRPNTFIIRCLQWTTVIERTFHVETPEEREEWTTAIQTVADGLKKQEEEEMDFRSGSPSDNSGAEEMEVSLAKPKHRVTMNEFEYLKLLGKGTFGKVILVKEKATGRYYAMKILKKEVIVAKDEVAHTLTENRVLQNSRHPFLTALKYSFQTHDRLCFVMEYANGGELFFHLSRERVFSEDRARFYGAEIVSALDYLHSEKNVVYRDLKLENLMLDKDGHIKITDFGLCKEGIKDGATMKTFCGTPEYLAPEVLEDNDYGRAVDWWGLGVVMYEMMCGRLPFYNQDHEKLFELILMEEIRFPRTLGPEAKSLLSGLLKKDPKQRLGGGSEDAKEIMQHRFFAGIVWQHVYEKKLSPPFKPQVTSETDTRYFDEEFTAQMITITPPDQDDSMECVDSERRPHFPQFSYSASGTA

**Q.** With “Beclin 1 AA: Beclin 1 double mutation S234A/S295A, cannot be phosphorylated by Akt; expressed in cells” as the molecule, how does the “mean mitotic counts of tumors” value [1] read?
**A.** 3.67

**Q.** And the “tumors displaying degenerative features with numerous pyknotic nuclei” value [1]?
**A.** 60%

**Q.** Which “autophagy induced by serum depletion” value [2] does the source give for “epidermal growth factor [EGF, growth factor ligand that triggers EGFR signaling]” here?
**A.** partially reversed autophagy induction

**Q.** How did the “mean mitotic counts of tumors” value [1] turn out when “Beclin 1: wild-type human Beclin 1, essential autophagy and tumor suppressor protein; expressed in cells” was run?
**A.** 8.37

**Q.** For `NC1(c2ccc(-c3nc4ccn5c(=O)[nH]nc5c4cc3-c3ccccc3)cc2)CCC1` [MK-2206], which basal autophagy [3] is on record?
**A.** increased basal autophagy

**Q.** What about the “GST-Akt1 phosphorylation of Beclin 1 S295 in vitro” value (GST-Akt1) of the same molecule?
**A.** partially blocked

**Q.** What does the source list for `C#Cc1cccc(Nc2ncnc3cc(OCCOC)c(OCCOC)cc23)c1` [erlotinib]?
**A.** time to complete regression of all tumor xenografts (HCC827 xenografts): ≤ 14 days; Beclin 1/EGFR interaction [4]: blocked; also recorded: disruption of EGFR/Beclin 1 binding; Beclin 1 tyrosine phosphorylation [4]: decreased; EGFR phosphorylation [4]: EGFR dephosphorylation; endogenous Beclin 1 Y233 phosphorylation ([4]; phosphospecific antibody): blocked; Beclin 1/EGFR interaction [5]: not; endogenous Beclin 1 Y233 phosphorylation ([5]; phosphospecific antibody): not; LC3-II conversion and p62 degradation (HCC827 cells; HCC827 cells): demonstrated LC3-II conversion and p62 degradation; GFP-LC3 puncta (HCC827 cells; HCC827 cells stably transfected with GFP-LC3): increased GFP-LC3 puncta in a dose-dependent manner; LC3-II conversion and p62 degradation (H1975 cells; H1975 cells): not; GFP-LC3 puncta (H1975 cells; H1975 cells stably transfected with GFP-LC3): not

**Q.** With `CCC(=O)N1CCN(c2ccc(-n3c(=O)ccc4cnc5ccc(-c6cnc7ccccc7c6)cc5c43)cc2C(F)(F)F)CC1` [Torin1] as the molecule, how does the “amounts of phospho-4E-BP1” value (mTOR) read?
**A.** decreased

**Q.** What about the “myr-Akt1-driven phosphorylation of endogenous Beclin 1 S295 and S234” value [6] of the same molecule?
**A.** not reversed

**Q.** What about the autophagy (HeLa cells) of the same molecule?
**A.** induced autophagy

**Q.** For `CCN(CC)CCCCN1c2ccccc2Oc2ccc(Cl)cc21` [Akt inhibitor X], which “GST-Akt1 phosphorylation of Beclin 1 S295 in vitro” value (GST-Akt1) is on record?
**A.** partially blocked
